Experimental data from US20050014144A1, “Methods” (priority 2001, published 2005).

Tests used:
[1] = tested on: P. viticola cytochrome b gene F129 and L129 alleles; experiment: ARMS/Scorpion F129L SNP detection assay (Ct of allele selective primers on plasmid DNA templates); parameters: species or system Plasmopara viticola
Experimental: In all ARMS/Scorpion F129L SNP detection assays AmpliTaq Gold enzyme (Applied Biosystems) is included in the reaction mixes at 1 unit/25 ul reaction. The reaction mix also contains 1× buffer (10 mM Tris-HCl (pH8.3), 50 mM KCl, 3.5 mM MgCl2, 0.01% gelatine) and 100 uM dNTP's (Amersham Pharmacia Biotech). Amplifications are performed in an ABI 7700 instrument for continuous fluorescence monitoring. The cycling conditions comprise a preliminary cycle of 95° C. for 10 minutes, followed by 50 cycles of 95° C. for 15 seconds and 60° C. for 45 seconds. Fluorescence is monitored during the annealing/extension stage throughout all cycles.
The ARMS primers are validated for use in such analyses by using plasmid DNA, at various concentrations as template. This is performed in order to check the specificity and sensitivity of the primer designs. Partial wild type cytochrome b gene sequence and the corresponding tract containing the F129L mutation amplified from two P. viticola samples has been cloned into the TA pCR2.1 vector (Invitrogen) as described previously in example 11. 150 ul of the bacterial culture, from the 10 transformants from each cloning event picked for Qiagen Biorobot plasmid DNA Preparations (Qiazen) (see example 11), was saved prior to carrying out these preparations and stored at 4° C. Following sequence analysis wild type and mutant plasmid DNA samples that contained no sequence differences from the consensus sequence were noted. The bacterial culture from which these wild type and mutant plasmid DNA sequences originated was picked for plasmid DNA maxipreps (Qiagen) following the manufacturers protocol. The resulting plasmid DNA was quantified and diluted to a concentration of 1 ug/ul (2×10^11 molecules/ul) using sterile double distilled H2O.
The wild type and mutant cyt b plasmid DNA constructs were diluted further to a concentration of 10 pg/ul (or 2×10^6 molecules/ul) in double distilled H2O and used as template to validate the specificity of the ARMS primers. […]

Plasmopara viticola = experiment: in planta dose response bioassay with azoxystrobin on vine seedlings (EC50, EC95); format: in vivo; details: for EC95: vine seedlings, azoxystrobin rates in ppm (Table 31)
Experimental: The in planta dose response bioassay was performed on 10 to 14 days old vine seedlings grown in 1.5″ pots. Six rates of azoxystrobin were chosen from preparatory tests, as the most suitable for showing any shifts in sensitivity to azoxystrobin in the dose response bioassay (Table 31).
The azoxystrobin preparation used for all the tests was P53, a technical grade powder with a purity of >97% azoxystrobin. This was kept consistent across all the tests to eliminate any variation caused by differences in chemical purity or physical state. Five seedlings were used per azoxystrobin rate per sample, and 10 seedlings were used for the no azoxystrobin control (sprayed with de-ionised water only).
The chemical was sprayed, with a Devilbiss spray gun at 10 psi, to maximum retention onto the adaxial surface of the 2nd true leaf (test leaf) of each seedling, with care being taken to continuously swirl the solution in the spray gun to prevent local fluctuations in azoxystrobin concentration: The seedlings were then carefully placed in a growth room (Day: 24° C., 60% RH, 4-5000 lux; Night: 17° C., 95% RH; Day length: 16 hours) for 24 hours.
After this time each test leaf was inoculated with the samples I112 and I116b. Both samples had passed through 1 cycle of subculture on 3″ vines since being removed from low temperature storage (FIG. 14). The inoculum from each sample, obtained from the 3″ vines, was diluted to 5,000 sporangia per ml using a dry haemocytometer (Improved Neubayer, depth 0.1 mm, 1/400 mm^2, Hawksley Crystallite, BS 748).
The samples were inoculated, with a Devilbiss spray gun at 10 psi, to maximum retention onto the abaxial surface of the test leaf of each seedling, with the suspension being swirled frequently in the spray gun to keep sporangia from accumulating at the bottom. The test seedlings were incubated in an ambient room for twenty-four hours. The seedlings were then randomised and placed in a growth room (Day: 24° C., 60% RH, 4-5000 lux; Night: 17° C., 95% RH; Day length: 16 hours) for 6 days, before being returned to the ambient room for a further 24 hours to stimulate sporulation.
The seedlings were assessed directly after their removal from the ambient room for the second time. Disease assessment was based on the percentage area of the leaf covered by sporulating lesions and discolouration, and recorded in 5% increments. […] The data was then analysed using the statistical program AGSTAT.

Pythium aphanidermatum = experiment: Azoxystrobin sensitivity of P. aphanidermatum isolates on treated perennial ryegrass turf (percent infected turf area); format: in vivo
Experimental: To enable an assessment of axoxystrobin (strobilurin) resistance of the above isolates, perennial ryegrass (Lolium perenne L.) was grown in 4×4 inch square plastic pots containing sandy soil. Agsorb absorbent clay (extra fine red) was used to anchor the seeds and provide a high level of moisture around the seed to aid germination. The pots were watered using a fog nozzle and covered with paper to reduce evaporation. A fog nozzle was used 3-5 times a day to water the turf pots. When seedlings emerged, the paper cover was removed from the pots to prevent etiolation and watering was reduced to twice daily using a fan nozzle. The pots were maintained for 12-16 days in a glass-house (17-32° C.; 14 h photoperiod) prior to treatment. During this time, the turf was cut twice with electric Black and Decker hand-held clippers.
Pythium aphanidermatum cultures of the isolates summarized in FIG. 1 were maintained on potato dextrose agar (PDA) amended with streptomycin sulfate at 0.05 g/L. Organically grown rye grains (50 g) were hydrated overnight with 40 ml deionized water placed in 250 ml plastic (polyvinyl-chloride) flasks. The flasks were autoclaved twice on successive days for 45 minutes each time. After the berries cooled, ten 1×1 cm agar plugs of P. aphanidermatum were added to each flask. Flasks containing infected rye-berries were incubated in a growth chamber (26° C.; 14 h photoperiod) for seven days to allow the fungi to colonize the rye grains. The fungal-colonized rye grains were then used to inoculate the turf; by placing four berries on the center surface of each pot.
Azoxystrobin treatments were applied in an automated spray cabinet using a flat fan nozzle (8004E) positioned 18 inches over the turf with a spray volume of 3 US gal/1000 sq.ft. To prevent carry over from treatment to treatment, applications were made starting with the lowest concentration and ending with the highest concentration. The spray nozzle was washed once with acetone and twice with deionized water (100 ml/rinse) between treatments. Turf was sprayed with Heritage® (azoxystrobin) at rates of 0.4, 0.133, 0.044, 0.015, 0.005 and 0 oz.Heritage/1000 sq.ft. Following application, the turf was allowed to dry and was transferred to a growth chamber (25-28° C.; 14 h photoperiod) overnight.
Turf was inoculated with fungal-colonized rye-berries one day after application as previously described. All treatments were then randomized and placed in a dew chamber (25-28° C.; 14 h photoperiod) for four days. The turf was moved to a growth room 24 h prior to disease assessment. The percent of Pythium-infected turf area in each pot was assessed five days after inoculation With the exception of isolate 99-150, all the isolates of P. aphanidermatum were sensitive to azoxystrobin (Table1). […] This is the first report of resistance to azoxystrobin of an isolate of the plant pathogenic fungus P. aphanidermatum.
The sensitivity of the resistant isolate 99-150 and sensitive isolate P32R was then confirmed by testing in two separate experiments using rates up to nine times higher than the recommended commercial rate of Heritage® (azoxystrobin): 3.6, 1.2, 0.4, 0.133, 0.044, 0.015, 0.005 and 0 oz/1000 sq.ft.

Row | Molecule | Mut Ct ([1]; mutant (L129) plasmid template, 2×10^6 molecules/ul) | NTC amplification ([1]; no template (water only) control) | Wt Ct ([1]; wild type (F129) plasmid template, 2×10^6 molecules/ul) | EC95 (Plasmopara viticola; P. viticola K2075 (sensitive baseline isolate)) | EC95 (Plasmopara viticola; P. viticola isolate 00I112) | EC95 (Plasmopara viticola; P. viticola isolate 00I116B) | sensitivity to azoxystrobin in the in planta dose response bioassay (Plasmopara viticola; P. viticola sample I112, compared with the sensitive baseline isolate) | sensitivity to azoxystrobin in the in planta dose response bioassay (Plasmopara viticola; P. viticola sample I116B, compared with the sensitive baseline isolate) | sensitivity of isolate to azoxystrobin (percent of Pythium-infected turf area) (Pythium aphanidermatum; P. aphanidermatum isolate 99-150, Heritage 0.005-0.4 oz/1000 sq.ft on turf, assessed five days after inoculation) | sensitivity of isolates to azoxystrobin (percent of Pythium-infected turf area) (Pythium aphanidermatum; all P. aphanidermatum isolates except 99-150, Heritage 0.005-0.4 oz/1000 sq.ft on turf, assessed five days after inoculation) | response of isolate to azoxystrobin (percentage of infected turf) (Pythium aphanidermatum; resistant isolate 99-150, rates up to nine times the recommended commercial rate of Heritage (3.6 oz/1000 sq.ft)) | ED80 values of the sensitive isolates (Pythium aphanidermatum; sensitive P. aphanidermatum isolates, compared with the established baseline distribution) | percentage of infected turf (Pythium aphanidermatum; sensitive isolate P32R, highest rate of Heritage (3.6 oz/1000 sq.ft))
1 | Pv129S (DNA GTCCCCAAGGCAAAACATAACCCAT; chemistry not given here) | 17.22 | None | 17.0 | – | – | – | – | – | – | – | – | – | –
2 | CO/C=C(/C(=O)OC)c1ccccc1Oc1cc(Oc2ccccc2C#N)ncn1 [azoxystrobin] | – | – | – | 0.51 | 11.75 | 2.84 | reduced sensitivity | reduced sensitivity | resistant | sensitive | did not respond | within the range of ED80 values of the baseline distribution | reduced dramatically
